Laboratory results published in patent US8937072B2, “Substituted cyanoaniline compounds, preparation and use thereof” (Sinochem Corporation, priority 2011, dated 2015).
Read-outs that look alike come from different tables or passages of the source.

Key:
rice blast = test: microbe, parasite or virus in culture; type: cell-based; details: for the inhibition rate against rice blast (%) 0.03 mg/L: Table 21, 0.03 mg/L; for the inhibition rate against rice blast (%) 0.1 mg/L: Table 21, 0.1 mg/L; for the inhibition rate against rice blast (%) 0.3 mg/L: Table 21, 0.3 mg/L; for inhibition rate against rice blast: in vitro, dose 8.3 mg/L
cucumber downy mildew = test: Protectant activity in vivo (whole plant) against cucumber downy mildew; details: for pest or weed control at 12.5 µg/mL / pest or weed control at 25 µg/mL / pest or weed control at 50 µg/mL / pest or weed control at 100 µg/mL / pest or weed control at 400 µg/mL: Cucumis sativus, 168 h; for pest or weed control at 25 µg/mL / pest or weed control at 50 µg/mL / pest or weed control at 100 µg/mL: read-out: the protectant activity (%) against cucumber downy mildew
Description: (§1) The method is as followed: The whole plant is used in this test. The compound is dissolved in a proper solvent to get mother solution. The proper solvent is selected from acetone, methanol, DMF and so on according to their dissolving capability to the sample. The volume rate of solvent and testing solution (v/v) is equal to or less than 5%. The mother solution is diluted with water containing 0.1% tween-80 to get the testing solution whose concentration is designed. The testing solution is sprayed to the host plant by a special plant sprayer. The plant is inoculated with fungus after 24 hours. According to the infecting characteristic of fungus, the plant is stored in a humidity chamber and then transferred into greenhouse after infection is finished. And the other plants are placed in greenhouse directly. The activity of compound is obtained by eyeballing after 7 days in common.

corn rust = test: Protectant activity in vivo (whole plant) against corn rust; details: for pest or weed control at 6.25 µg/mL / pest or weed control at 25 µg/mL / pest or weed control at 100 µg/mL / pest or weed control at 400 µg/mL: Zea mays, 168 h
Description: as §1

cucumber gray mold = test: Activity in vitro (96-well, High Through Put): inhibition rate against cucumber gray mold; type: cell-based; details: for inhibition at 0.9 µg/mL / inhibition at 2.8 µg/mL / inhibition at 8.3 µg/mL: read-out: the inhibition rate against cucumber gray mold (%); for inhibition at 25 µg/mL: in vitro, dose 25 mg/L
Description: The method is as followed: High Through Put is used in the test. The compound is dissolved in a proper solvent to become a testing solution whose concentration is designed. The solvent is selected from acetone, methanol, DMF and so on according to their dissolving capability to the sample. In a no animalcule condition, the testing solution and pathogens suspension are added into the cells of 96 cells culture board, which then should be placed in the constant temperature box. 24 hours later, pathogen germination or growth can be investigated by eyeballing, and the activity in vitro of the compound is evaluated based on germination or growth of control treatment.

[1] = 400 mg/L, read-out: the protectant activity (%) against corn rust
[2] = dose 400 mg/L, read-out: protectant activity against corn rust in vivo

## N#Cc1c(Cl)c(Cl)c(Nc2ccc(C(F)(F)F)cc2Cl)c(C#N)c1Cl [Compound B-28]
Rice blast
  the inhibition rate against rice blast (%) 0.03 mg/L: 80%
  the inhibition rate against rice blast (%) 0.1 mg/L: 100%
  the inhibition rate against rice blast (%) 0.3 mg/L: 100%
Cucumber downy mildew; 12.5 mg/L
  the protectant activity (%) against cucumber downy mildew: 20%
Cucumber downy mildew; 25 mg/L
  the protectant activity (%) against cucumber downy mildew: 80%
Cucumber downy mildew; 50 mg/L
  the protectant activity (%) against cucumber downy mildew: 98%
Cucumber downy mildew; 100 mg/L
  the protectant activity (%) against cucumber downy mildew: 100%
Cucumber downy mildew; dose 50 mg/L
  protectant activity against cucumber downy mildew in vivo: 98%
Cucumber downy mildew; dose 100 mg/L
  protectant activity against cucumber downy mildew in vivo: 100%
Cucumber downy mildew; dose 400 mg/L
  protectant activity against cucumber downy mildew in vivo: 100%

## CN(C)c1ccc(Nc2c(F)c(F)c(C#N)c(F)c2C#N)cc1 [KC24]
Corn rust; 6.25 mg/L
  pest or weed control at 6.25 µg/mL: 0%
Corn rust; 25 mg/L
  pest or weed control at 25 µg/mL: 0%
Corn rust; 100 mg/L
  pest or weed control at 100 µg/mL: 0%
Corn rust; [1]
  pest or weed control at 400 µg/mL: 0%
Corn rust; [2]
  pest or weed control at 400 µg/mL: 0%
Cucumber gray mold; 0.3 mg/L
  inhibition at 0.3 µg/mL: 0%
Cucumber gray mold; 0.9 mg/L
  inhibition at 0.9 µg/mL: 0%
Cucumber gray mold; 2.8 mg/L
  inhibition at 2.8 µg/mL: 0%
Cucumber gray mold; 8.3 mg/L
  inhibition at 8.3 µg/mL: 0%
Cucumber gray mold
  inhibition at 25 µg/mL: 0%
Cucumber downy mildew; 12.5 mg/L
  pest or weed control at 12.5 µg/mL: 0%
Cucumber downy mildew; 25 mg/L
  pest or weed control at 25 µg/mL: 0%
Cucumber downy mildew; 50 mg/L
  pest or weed control at 50 µg/mL: 0%
Cucumber downy mildew; 100 mg/L
  pest or weed control at 100 µg/mL: 0%
Cucumber downy mildew; dose 400 mg/L
  pest or weed control at 400 µg/mL: 0%

## N#Cc1c(Cl)c(Cl)c(Nc2c(Br)cc([N+](=O)[O-])cc2Br)c(C#N)c1Cl [Compound B-57]
Corn rust; 6.25 mg/L
  the protectant activity (%) against corn rust: 60%
Corn rust; 25 mg/L
  the protectant activity (%) against corn rust: 80%
Corn rust; 100 mg/L
  the protectant activity (%) against corn rust: 85%
Corn rust; 400 mg/L
  the protectant activity (%) against corn rust: 100%
Corn rust; dose 400 mg/L
  protectant activity against corn rust in vivo: 100%
Cucumber gray mold; 0.9 mg/L
  the inhibition rate against cucumber gray mold (%): 80%
Cucumber gray mold; 2.8 mg/L
  the inhibition rate against cucumber gray mold (%): 100%
Cucumber gray mold; 8.3 mg/L
  the inhibition rate against cucumber gray mold (%): 100%
Cucumber downy mildew; 12.5 mg/L
  the protectant activity (%) against cucumber downy mildew: 30%
Cucumber downy mildew; 25 mg/L
  the protectant activity (%) against cucumber downy mildew: 100%
Cucumber downy mildew; 50 mg/L
  the protectant activity (%) against cucumber downy mildew: 100%
Cucumber downy mildew; 100 mg/L
  the protectant activity (%) against cucumber downy mildew: 100%
Cucumber downy mildew; dose 25 mg/L
  protectant activity against cucumber downy mildew in vivo: 100%
Cucumber downy mildew; dose 50 mg/L
  protectant activity against cucumber downy mildew in vivo: 100%
Cucumber downy mildew; dose 100 mg/L
  protectant activity against cucumber downy mildew in vivo: 100%
Cucumber downy mildew; dose 400 mg/L
  protectant activity against cucumber downy mildew in vivo: 100%

## N#Cc1c(Cl)c(Cl)c(Nc2c(Cl)cc([N+](=O)[O-])cc2Br)c(Cl)c1C#N [Compound A-46]
Corn rust; 6.25 mg/L
  the protectant activity (%) against corn rust: 75%
Corn rust; 25 mg/L
  the protectant activity (%) against corn rust: 85%
Corn rust; 100 mg/L
  the protectant activity (%) against corn rust: 95%
Corn rust; 400 mg/L
  the protectant activity (%) against corn rust: 100%
Corn rust; dose 400 mg/L
  protectant activity against corn rust in vivo: 100%
Rice blast
  the inhibition rate against rice blast (%) 0.03 mg/L: 100%
  the inhibition rate against rice blast (%) 0.1 mg/L: 100%
  the inhibition rate against rice blast (%) 0.3 mg/L: 100%

## N#Cc1c(Cl)c(Cl)c(C#N)c(Nc2ncccn2)c1Cl [Compound C-126]
Rice blast
  inhibition rate against rice blast: 80%
Cucumber downy mildew; dose 400 mg/L
  protectant activity against cucumber downy mildew in vivo: 100%

## N#Cc1c(Cl)c(Cl)c(Nc2cc(Cl)cnc2Cl)c(C#N)c1Cl [Compound B-133]
Rice blast
  the inhibition rate against rice blast (%) 0.03 mg/L: 100%
  the inhibition rate against rice blast (%) 0.1 mg/L: 100%
  the inhibition rate against rice blast (%) 0.3 mg/L: 100%
Cucumber downy mildew; 12.5 mg/L
  the protectant activity (%) against cucumber downy mildew: 95%
Cucumber downy mildew; 25 mg/L
  the protectant activity (%) against cucumber downy mildew: 100%
Cucumber downy mildew; 50 mg/L
  the protectant activity (%) against cucumber downy mildew: 100%
Cucumber downy mildew; 100 mg/L
  the protectant activity (%) against cucumber downy mildew: 100%
Cucumber downy mildew; dose 6.25 mg/L
  protectant activity against cucumber downy mildew in vivo: 80%
Cucumber downy mildew; dose 25 mg/L
  protectant activity against cucumber downy mildew in vivo: 100%
Cucumber downy mildew; dose 50 mg/L
  protectant activity against cucumber downy mildew in vivo: 100%
Cucumber downy mildew; dose 100 mg/L
  protectant activity against cucumber downy mildew in vivo: 100%

## COc1ccc(Nc2c(F)c(C#N)c(F)c(F)c2C#N)cc1 [Compound C-68]
Rice blast
  inhibition rate against rice blast: 80%

## N#Cc1c(Cl)c(Cl)c(Nc2nc(Cl)c(Cl)cc2Cl)c(C#N)c1Cl [Compound B-128]
Rice blast
  the inhibition rate against rice blast (%) 0.03 mg/L: 100%
  the inhibition rate against rice blast (%) 0.1 mg/L: 100%
  the inhibition rate against rice blast (%) 0.3 mg/L: 100%
Cucumber downy mildew; dose 50 mg/L
  protectant activity against cucumber downy mildew in vivo: 98%
Cucumber downy mildew; dose 100 mg/L
  protectant activity against cucumber downy mildew in vivo: 100%
Cucumber downy mildew; dose 400 mg/L
  protectant activity against cucumber downy mildew in vivo: 100%

## N#Cc1c(Cl)c(Cl)c(Nc2cc(C(F)(F)F)ccc2F)c(C#N)c1Cl [Compound B-30]
Rice blast
  the inhibition rate against rice blast (%) 0.03 mg/L: 0%
  the inhibition rate against rice blast (%) 0.1 mg/L: 50%
  the inhibition rate against rice blast (%) 0.3 mg/L: 100%

## N#Cc1c(Cl)c(Cl)c(C#N)c(Nc2cc(Cl)cnc2Cl)c1Cl [Compound C-118]
Rice blast
  the inhibition rate against rice blast (%) 0.03 mg/L: 100%
  the inhibition rate against rice blast (%) 0.1 mg/L: 100%
  the inhibition rate against rice blast (%) 0.3 mg/L: 100%
Cucumber downy mildew; dose 400 mg/L
  protectant activity against cucumber downy mildew in vivo: 100%

## N#Cc1c(Cl)c(Cl)c(C#N)c(Nc2c(Cl)cncc2Cl)c1Cl [Compound C-124]
Rice blast
  the inhibition rate against rice blast (%) 0.03 mg/L: 100%
  the inhibition rate against rice blast (%) 0.1 mg/L: 100%
  the inhibition rate against rice blast (%) 0.3 mg/L: 100%
Cucumber downy mildew; dose 50 mg/L
  protectant activity against cucumber downy mildew in vivo: 100%
Cucumber downy mildew; dose 100 mg/L
  protectant activity against cucumber downy mildew in vivo: 100%
Cucumber downy mildew; dose 400 mg/L
  protectant activity against cucumber downy mildew in vivo: 100%

## O=[N+]([O-])c1cc(C(F)(F)F)c(Cl)c([N+](=O)[O-])c1Nc1ncc(C(F)(F)F)cc1Cl [fluazinam]
Rice blast; Pyricularia oryzae, read-out: the inhibition rate against rice blast (%) 0.03 mg/L
  inhibition at 0.03 µg/mL: 50%
Rice blast; Pyricularia oryzae, read-out: the inhibition rate against rice blast (%) 0.1 mg/L
  inhibition at 0.1 µg/mL: 80%
Rice blast; Pyricularia oryzae, read-out: the inhibition rate against rice blast (%) 0.3 mg/L
  inhibition at 0.3 µg/mL: 100%

## COc1ccc(Nc2c(Cl)c(C#N)c(Cl)c(Cl)c2C#N)cc1 [Compound C-14]
Rice blast
  inhibition rate against rice blast: 80%

## N#Cc1c(Cl)c(Cl)c(Nc2ccc([N+](=O)[O-])cc2Cl)c(Cl)c1C#N [Compound A-15]
Corn rust; dose 400 mg/L
  protectant activity against corn rust in vivo: 100%
Cucumber gray mold; 0.3 mg/L
  the inhibition rate against cucumber gray mold (%): 100%
Cucumber gray mold; 0.9 mg/L
  the inhibition rate against cucumber gray mold (%): 100%
Cucumber gray mold; 2.8 mg/L
  the inhibition rate against cucumber gray mold (%): 100%
Cucumber gray mold; 8.3 mg/L
  the inhibition rate against cucumber gray mold (%): 100%
Cucumber downy mildew; dose 50 mg/L
  protectant activity against cucumber downy mildew in vivo: 100%
Cucumber downy mildew; dose 100 mg/L
  protectant activity against cucumber downy mildew in vivo: 100%
Cucumber downy mildew; dose 400 mg/L
  protectant activity against cucumber downy mildew in vivo: 100%

## COc1ccc(Nc2c(F)c(F)c(C#N)c(C#N)c2F)c(OC)c1 [KC27]
Corn rust; 6.25 mg/L
  pest or weed control at 6.25 µg/mL: 0%
Corn rust; 25 mg/L
  pest or weed control at 25 µg/mL: 0%
Corn rust; 100 mg/L
  pest or weed control at 100 µg/mL: 0%
Corn rust; [1]
  pest or weed control at 400 µg/mL: 0%
Corn rust; [2]
  pest or weed control at 400 µg/mL: 0%
Cucumber gray mold; 0.3 mg/L
  inhibition at 0.3 µg/mL: 0%
Cucumber gray mold; 0.9 mg/L
  inhibition at 0.9 µg/mL: 0%
Cucumber gray mold; 2.8 mg/L
  inhibition at 2.8 µg/mL: 0%
Cucumber gray mold; 8.3 mg/L
  inhibition at 8.3 µg/mL: 0%
Cucumber gray mold
  inhibition at 25 µg/mL: 0%
Cucumber downy mildew; 12.5 mg/L
  pest or weed control at 12.5 µg/mL: 0%
Cucumber downy mildew; 25 mg/L
  pest or weed control at 25 µg/mL: 0%
Cucumber downy mildew; 50 mg/L
  pest or weed control at 50 µg/mL: 0%
Cucumber downy mildew; 100 mg/L
  pest or weed control at 100 µg/mL: 0%
Cucumber downy mildew; dose 400 mg/L
  pest or weed control at 400 µg/mL: 0%

## N#Cc1c(Cl)c(Cl)c(Nc2ccc(Cl)cc2[N+](=O)[O-])c(C#N)c1Cl [Compound B-39]
Rice blast
  the inhibition rate against rice blast (%) 0.03 mg/L: 0%
  the inhibition rate against rice blast (%) 0.1 mg/L: 80%
  the inhibition rate against rice blast (%) 0.3 mg/L: 100%
Cucumber downy mildew; dose 400 mg/L
  protectant activity against cucumber downy mildew in vivo: 100%
